The text below walks through data of patent US9102621B2, “Acyl sulfonamide compounds” (Pfizer Limited, priority 2010, dated 2015).

Counter-ions that a name gives are not always drawn.

T1 sequence (Q15858 whole entry): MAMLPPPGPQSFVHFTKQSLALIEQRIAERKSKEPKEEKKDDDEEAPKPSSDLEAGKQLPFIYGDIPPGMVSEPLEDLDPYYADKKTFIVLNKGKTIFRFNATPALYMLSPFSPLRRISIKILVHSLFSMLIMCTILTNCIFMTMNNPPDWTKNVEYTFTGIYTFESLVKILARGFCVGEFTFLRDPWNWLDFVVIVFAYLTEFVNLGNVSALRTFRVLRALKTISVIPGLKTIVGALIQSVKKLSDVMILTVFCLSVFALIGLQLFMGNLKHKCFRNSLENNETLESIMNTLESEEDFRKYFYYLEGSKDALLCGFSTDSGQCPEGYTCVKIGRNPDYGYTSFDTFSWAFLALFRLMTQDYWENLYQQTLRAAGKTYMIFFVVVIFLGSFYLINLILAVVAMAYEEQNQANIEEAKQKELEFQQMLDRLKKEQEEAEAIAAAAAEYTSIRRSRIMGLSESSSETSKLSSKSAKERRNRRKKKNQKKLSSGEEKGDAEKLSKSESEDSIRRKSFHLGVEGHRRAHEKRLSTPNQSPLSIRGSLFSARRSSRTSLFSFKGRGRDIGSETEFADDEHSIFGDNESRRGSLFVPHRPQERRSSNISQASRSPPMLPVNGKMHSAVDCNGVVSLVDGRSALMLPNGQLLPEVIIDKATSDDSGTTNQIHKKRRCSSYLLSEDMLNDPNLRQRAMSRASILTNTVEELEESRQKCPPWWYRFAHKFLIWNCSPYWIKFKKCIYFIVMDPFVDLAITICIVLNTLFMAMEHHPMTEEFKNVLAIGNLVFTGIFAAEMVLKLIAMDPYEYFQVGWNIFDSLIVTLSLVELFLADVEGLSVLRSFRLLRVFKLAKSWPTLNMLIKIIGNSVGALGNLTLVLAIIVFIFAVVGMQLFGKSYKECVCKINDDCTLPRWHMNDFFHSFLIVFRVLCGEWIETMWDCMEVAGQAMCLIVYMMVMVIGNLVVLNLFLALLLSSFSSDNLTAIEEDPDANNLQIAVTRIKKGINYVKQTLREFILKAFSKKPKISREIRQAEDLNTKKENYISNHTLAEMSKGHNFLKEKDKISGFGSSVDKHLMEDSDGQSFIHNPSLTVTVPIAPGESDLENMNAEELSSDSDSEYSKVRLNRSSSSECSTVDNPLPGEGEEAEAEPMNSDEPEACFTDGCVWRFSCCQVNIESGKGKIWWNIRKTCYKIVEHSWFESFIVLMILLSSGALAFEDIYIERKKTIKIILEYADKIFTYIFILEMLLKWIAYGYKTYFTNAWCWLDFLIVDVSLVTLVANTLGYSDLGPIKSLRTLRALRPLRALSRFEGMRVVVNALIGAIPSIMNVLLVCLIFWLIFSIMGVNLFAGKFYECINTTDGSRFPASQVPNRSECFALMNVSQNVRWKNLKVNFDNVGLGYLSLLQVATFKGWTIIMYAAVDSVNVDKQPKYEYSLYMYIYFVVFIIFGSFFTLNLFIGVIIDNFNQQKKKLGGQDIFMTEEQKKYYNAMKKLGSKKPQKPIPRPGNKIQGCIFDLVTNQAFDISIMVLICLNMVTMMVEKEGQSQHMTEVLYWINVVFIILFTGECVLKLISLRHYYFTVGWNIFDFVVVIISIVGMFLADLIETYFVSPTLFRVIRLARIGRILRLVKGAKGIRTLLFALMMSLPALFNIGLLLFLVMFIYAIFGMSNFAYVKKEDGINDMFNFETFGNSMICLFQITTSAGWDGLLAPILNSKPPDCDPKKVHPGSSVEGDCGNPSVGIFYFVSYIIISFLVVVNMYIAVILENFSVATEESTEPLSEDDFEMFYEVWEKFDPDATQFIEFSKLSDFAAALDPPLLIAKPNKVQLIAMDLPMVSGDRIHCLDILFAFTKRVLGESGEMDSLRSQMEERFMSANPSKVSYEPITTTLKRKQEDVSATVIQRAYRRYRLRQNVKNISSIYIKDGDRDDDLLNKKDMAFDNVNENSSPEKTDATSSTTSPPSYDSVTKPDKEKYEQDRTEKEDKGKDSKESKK

The test concerns the target T1, Nav1.7 (or SCN9A) channel (Homo sapiens, UniProt Q15858).
T1 construct: expressed in transfected cells
As to the kind of experiment: Nav1.7 (hSCN9A) channel block, PatchXpress whole-cell electrophysiology. Particulars: PatchXpress platform; HEK cells stably transfected with hSCN9A; estimated IC-50 calculated from single point % inhibition at V1/2; read-out: Nav1.7 EIC50. It is filed as cell-based. As for the experimental part:
The ability of the compounds of formula (I) to block the Nav1.7 (or SCN9A) channel were measured using the assay described below.
Human Embryonic Kidney (HEK) cells were transfected with an hSCN9A construct using lipofectamine reagent (Invitrogen), using standard techniques. Cells stably expressing the hSCN9A constructs were identified by their resistance to G-418 (400 μg/ml). Clones were screened for expression using the whole-cell voltage-clamp technique.
HEK cells stably transfected with hSCN9A were maintained in DMEM medium supplemented with 10% heat-inactivated fetal bovine serum and 400 μg/ml G-418 in an incubator at 37° C. with a humidified atmosphere of 10% CO2. For HTS, cells were harvested from flasks by trypsinization and replated in an appropriate multi-well plate (typically 96 or 384 wells/plate) such that confluence would be achieved within 24 hours of plating. For electrophysiological studies, cells were removed from the culture flask by brief trypsinization and re-plated at low density onto glass cover slips. Cells were typically used for electrophysiological experiments within 24 to 72 hours after plating.
Cover slips containing HEK cells expressing hSCN9A were placed in a bath on the stage of an inverted microscope and perfused (approximately 1 ml/minutes) with extracellular solution of the following composition: 138 mM NaCl, 2 mM CaCl2, 5.4 mM KCl, 1 mM MgCl2, 10 mM glucose, and 10 mM HEPES, pH 7.4, with NaOH. […] The osmolarity of the extracellular and intracellular solutions was 300 mOsm/kg and 295 mOsm/kg, respectively. All recordings were made at room temperature (22-24° C.) using AXOPATCH 200B amplifiers and PCLAMP software (Axon Instruments, Burlingame, Calif.).
hSCN9A currents in HEK cells were measured using the whole-cell configuration of the patch-clamp technique (Hamill et al., 1981). Uncompensated series resistance was typically 2 to 5 mega ohms and >85% series resistance compensation was routinely achieved. As a result, voltage errors were negligible and no correction was applied. Current records were acquired at 20 to 50 KHz and filtered at 5 to 10 KHz.
HEK cells stably transfected with hSCN9A were viewed under Hoffman contrast optics and placed in front of an array of flow pipes emitting either control or compound-containing extracellular solutions. All compounds were dissolved in dimethyl sulfoxide to make 10 mM stock solutions, which were then diluted into extracellular solution to attain the final concentrations desired. […] The voltage-dependence of inactivation was determined by applying a series of depolarizing prepulses (8 sec long in 10 mV increments) from a negative holding potential. The voltage was then immediately stepped to 0 mV to assess the magnitude of the sodium current. Currents elicited at 0 mV were plotted as a function of prepulse potential to allow estimation of the voltage at which 50% of the channels were inactivated (midpoint of inactivation or V1/2). Compounds were tested for their ability to inhibit hSCN9A sodium channels by activating the channel with a 20 msec voltage step to 0 mV following an 8 second conditioning prepulse to the empirically determined V1/2. Compound effect (% inhibition) was determined by difference in current amplitude before and after application of test compounds. […] Inhibition values <20% and >80% were excluded from the calculation.
Electrophysiological assays were conducted with PatchXpress 7000 hardware and associated software (Molecular Devices Corp). All assay buffers and solutions were identical to those used in conventional whole-cell voltage clamp experiments described above. hSCN9A cells were grown as above to 50%-80% confluency and harvested by trypsinization. Trypsinized cells were washed and resuspended in extracellular buffer at a concentration of 1×10^6 cells/ml. The onboard liquid handling facility of the PatchXpress was used for dispensing cells and application of test compounds. […]
As to `CC(C)COc1ncc(OCc2cc(F)c(C(=O)NS(C)(=O)=O)cc2F)cc1Cl` [Example 1, 4-{[(5-Chloro-6-isobutoxypyridin-3-yl)oxy]methy}-2,5-difluoro-N-(methylsulfonyl)benzamide diethylamine salt], the IC50 is 13.9 nM.

For the molecule `CC(C)COc1ncc(OCc2ccc(C(=O)NS(C)(=O)=O)cc2)cc1Cl` [Example 3, 4-{[(5-Chloro-6-isobutoxypyridin-3-yl)oxy]methyl}-N-(methylsulfonyl)benzamide diethylamine salt], the IC50 was 324 nM.

For the molecule `COc1ncc(OCc2cc(F)c(C(=O)NS(=O)(=O)C3CC3)cc2F)cc1Cl` [Example 4, 4-((5-Chloro-6-methoxypyridin-3-yloxy)methyl)-N-(cyclopropylsulfonyl)-2,5-difluorobenzamide], the IC50 is 2600 nM.

Regarding `COc1cc(C(=O)NS(C)(=O)=O)ccc1COc1cnc(OCC(C)C)c(Cl)c1` [Example 5, 4-((5-Chloro-6-isobutoxypyridin-3-yloxy)methyl)-3-methoxy-N-(methylsulfonyl)benzamide diethylamine salt], the IC50 is 281 nM.

Turning to `COc1ncc(OCc2ccc(C(=O)NS(C)(=O)=O)cc2)cc1Cl` [Example 6, 4-((5-Chloro-6-methoxypyridin-3-yloxy)methyl)-N-(methylsulfonyl)benzamide], the IC50 is 3580 nM.

Consider `COc1ccc(OCc2ccc(C(=O)NS(C)(=O)=O)cc2)cn1` [Example 7, 4-{[(6-Methoxypyridin-3-yl)oxy]methyl}-N-(methylsulfonyl)benzamide], for which the IC50 is 35700 nM.

Consider `CS(=O)(=O)NC(=O)c1ccc(OCc2ccc(C(F)(F)F)nc2)cc1` [Example 9, N-(methylsulfonyl)-4-{[6-(trifluoromethyl)pyridin-3-yl]methoxy}benzamide formate salt], for which the IC50 is greater than 1000 nM.

With `CS(=O)(=O)NC(=O)c1ccc(COc2cncc(Cl)c2)cc1` [Example 10, 4-((5-Chloropyridin-3-yloxy)methyl)-N-(methylsulfonyl)benzamide], the IC50 is 8460 nM.

On to `CS(=O)(=O)NC(=O)c1cc(F)c(COc2cnc(OCCC(F)(F)F)c(Cl)c2)cc1F` [Example 11, 4-({[5-Chloro-6-(3,3,3-trifluoropropoxy)pyridin-3-yl]oxy}methyl)-2,5-difluoro-N-(methylsulfonyl)benzamide], for which the IC50 was 39.2 nM.

Regarding `CS(=O)(=O)NC(=O)c1cc(F)c(COc2cnc(C(F)(F)F)c(Cl)c2)cc1F` [Example 12, 4-({[5-Chloro-6-(trifluoromethyl)pyridin-3-yl]oxy}methyl)-2,5-difluoro-N-(methylsulfonyl)benzamide], the IC50 was 843 nM.

`CC(C)(F)COc1ncc(OCc2cc(F)c(C(=O)NS(C)(=O)=O)cc2F)cc1Cl` [Example 13, 4-((5-Chloro-6-(2-fluoro-2-methylpropoxy)pyridin-3-yloxy)methyl)-2,5-difluoro-N-(methylsulfonyl)benzamide]: the IC50 was 81.4 nM.

Consider `CC1(COc2ncc(OCc3cc(F)c(C(=O)NS(C)(=O)=O)cc3F)cc2Cl)CC1` [Example 14, 4-((5-Chloro-6-((1-methylcyclopropyl)methoxy)pyridin-3-yloxy)methyl)-2,5-difluoro-N-(methylsulfonyl)benzamide], for which the IC50 was 66.8 nM.

As to `[2H]C([2H])([2H])C(Oc1ncc(OCc2cc(F)c(C(=O)NS(C)(=O)=O)cc2F)cc1Cl)(C([2H])([2H])[2H])C([2H])([2H])[2H]` [Example 15], the IC50 was 30.8 nM.

On to `CS(=O)(=O)NC(=O)c1cc(F)c(COc2cnc(OCC(F)(F)F)c(Cl)c2)cc1F` [Example 16, 4-((5-Chloro-6-(2,2,2-trifluoroethoxy)pyridin-3-yloxy)methyl)-2,5-difluoro-N-(methylsulfonyl)benzamide], for which the IC50 is 150 nM.

For `CS(=O)(=O)NC(=O)c1cc(F)c(COc2cnc(OCC3CC3)c(Cl)c2)cc1F` [Example 17, 4-((5-Chloro-6-(cyclopropylmethoxy)pyridin-3-yloxy)methyl)-2,5-difluoro-N-(methylsulfonyl)benzamide], the IC50 is 156 nM.

Take `CC(C)(C)Oc1ncc(OCc2cc(F)c(C(=O)NS(C)(=O)=O)cc2F)cc1Cl` [Example 18, 4-((6-tert-Butoxy-5-chloropyridin-3-yloxy)methyl)-2,5-difluoro-N-(methylsulfonyl)benzamide]: the IC50 is 80.6 nM.

Regarding `CS(=O)(=O)NC(=O)c1cc(F)c(COc2cnc(OCC3CC(F)(F)C3)c(Cl)c2)cc1F` [Example 19, 4-((5-Chloro-6-((3,3-difluorocyclobutyl)methoxy)pyridin-3-yloxy)methyl)-2,5-difluoro-N-(methylsulfonyl)benzamide], the IC50 was 730 nM.

Take `CS(=O)(=O)NC(=O)c1cc(F)c(COc2cncc(Cl)c2)cc1F` [Example 20, 4-{[(5-Chloropyridin-3-yl)oxy]methyl}-2,5-difluoro-N-(methylsulfonyl)benzamide]: the IC50 is greater than 3000 nM.

`[2H]C([2H])([2H])C([2H])(Oc1ncc(OCc2cc(F)c(C(=O)NS(C)(=O)=O)cc2F)cc1Cl)C([2H])([2H])[2H]` [Example 21, 4-{[(5-Chloro-6-d7-isopropoxypyridin-3-yl)oxy]methyl}-2,5-difluoro-N-(methylsulfonyl)benzamide]: the IC50 is 161 nM.

With `CS(=O)(=O)NC(=O)c1cc(F)c(COc2cnc(OCC(F)(F)C(F)F)c(Cl)c2)cc1F` [Example 22, 4-({[5-Chloro-6-(2,2,3,3-tetrafluoropropoxy)pyridin-3-yl]oxy}methyl)-2,5-difluoro-N-(methylsulfonyl)benzamide], the IC50 is 9.2 nM.

In the case of `[2H]C(C)(C)Oc1ncc(OCc2cc(F)c(C(=O)NS(C)(=O)=O)cc2F)cc1Cl` [Example 24, 4-{[(5-Chloro-6-d1-isopropoxypyridin-3-yl)oxy]methyl}-2,5-difluoro-N-(methylsulfonyl)benzamide], the IC50 is 140 nM.

As for `CS(=O)(=O)NC(=O)c1cc(F)c(COc2cnc(OCC(F)(F)C(F)(F)F)c(Cl)c2)cc1F` [Example 25, 4-({[5-Chloro-6-(2,2,3,3,3-pentafluoropropoxy)pyridin-3-yl]oxy}methyl)-2,5-difluoro-N-(methylsulfonyl)benzamide], the IC50 is 18.6 nM.

Take `CS(=O)(=O)NC(=O)c1cc(F)c(COc2ccc(C(F)(F)F)nc2)cc1F` [Example 26, 2,5-Difluoro-N-(methylsulfonyl)-4-({[6-(trifluoromethyl)pyridin-3-yl]oxy}methyl)benzamide]: the IC50 was 4980 nM.

On to `CC(Oc1ncc(OCc2cc(F)c(C(=O)NS(C)(=O)=O)cc2F)cc1Cl)C(F)(F)F` (stereo not drawn) [Example 27, 4-((5-Chloro-6-(1,1,1-trifluoropropan-2-yloxy)pyridin-3-yloxy)methyl)-2,5-difluoro-N-(methylsulfonyl)benzamide], for which the IC50 was 42 nM.

`COc1ncc(OCc2cc(F)c(C(=O)NS(C)(=O)=O)cc2F)cc1Cl` [Example 28, 4-((5-Chloro-6-methoxypyridin-3-yloxy)methyl)-2,5-difluoro-N-(methylsulfonyl)benzamide]: the IC50 is 7440 nM.

Regarding `CC(C)Oc1ncc(COc2cc(F)c(C(=O)NS(C)(=O)=O)cc2F)cc1Cl` [Example 29, 4-((5-Chloro-6-isopropoxypyridin-3-yl)methoxy)-2,5-difluoro-N-(methylsulfonyl)benzamide diethylamine salt], the IC50 was 838 nM.

Take `CS(=O)(=O)NC(=O)c1cc(Cl)c(COc2cnc(OC(C(F)(F)F)C(F)(F)F)c(Cl)c2)cc1F` [Example 30, 5-Chloro-4-((5-chloro-6-(1,1,1,3,3,3-hexafluoropropan-2-yloxy)pyridin-3-yloxy)methyl)-2-fluoro-N-(methylsulfonyl)benzamide]: the IC50 is less than 100 nM.
